The values that follow come from the supplement of paper PMC7224384.

Test [1] relates to MDA-MB-453. As to the kind of experiment: drug sensitivity score (DSS), single agent (DSS (weighted AUC score)); higher = more sensitive (stronger viability decrease); extreme values may be limits of the assay. The following applies: BLU9931 0 nM; 72 h. Put shortly: (§1)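 Drug sensitivity scores come from a weighted area under a four-parameter logistic fit to percent viability, normalised per plate to control wells. Viability was based on cellular ATP read with CellTiterGlo 2.0 after 72 h at 37 °C, 5% CO2. Each 384-well plate carried FIMM Oncology set compounds in singlicate at five 10-fold dilutions, with 2000 MDA-MB-453 cells per well in medium with or without an FGFR4 inhibitor at 100 nM final.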

The subject of test [2] is MDA-MB-453. The experiment in a line: drug sensitivity score (DSS), in combination with BLU9931 (DSS (weighted AUC score)); higher = more sensitive (stronger viability decrease); extreme values may be limits of the assay. The following applies: BLU9931 100 nM; 72 h. Summed up:
as §1

Take `Cc1cnc(Nc2ccc(OCCN3CCCC3)cc2)nc1Nc1cccc(S(=O)(=O)NC(C)(C)C)c1` [Fedratinib]: the drug sensitivity score in test [1] was 8.3; in test [2], 6.3.
Consider `Nc1cc(C(F)(F)F)c(-c2cc(N3CCOCC3)nc(N3CCOCC3)n2)cn1` [Buparlisib], for which the drug sensitivity score is 11.3 in test [1] and 11.9 in test [2].
For `CS(=O)(=O)c1ccc(C(=O)Nc2ccc(Cl)c(-c3ccccn3)c2)c(Cl)c1` [Vismodegib], in that order: 0 and 0.
Regarding `CC(C)C[C@@H](C(=O)N[C@H](C(=O)OC1CCCC1)c1ccccc1)[C@H](O)C(=O)NO` [Tosedostat], the drug sensitivity score in test [1] is 9.4; in test [2], 10.1.
For `CCCCc1nc2cc(/C=C/C(=O)NO)ccc2n1CCN(CC)CC` [Pracinostat], in that order: 22.3 and 19.8.
As for `CNC(=O)[C@@H](NC(=O)[C@H](CC(C)C)[C@H](O)C(=O)NO)C(C)(C)C` [Marimastat], the drug sensitivity score was 1.1 in test [1] and 0.8 in test [2].
Take `COc1cccc2c1C(=O)c1c(O)c3c(c(O)c1C2=O)C[C@@](O)(C(=O)CO)C[C@@H]3O[C@H]1C[C@H](N)[C@H](O)[C@H](C)O1` [Doxorubicin]: the results for the drug sensitivity score in test [1] and in test [2] were 6.8 and 5.1, respectively.
In the same order, the values of `CN1CCN(c2nc(C3=C(c4c[nH]c5ccccc45)C(=O)NC3=O)c3ccccc3n2)CC1` [Sotrastaurin] are 2.5 and 1.
On to `CCN1CCN(c2ccc(Nc3cc(N(C)C(=O)Nc4c(Cl)c(OC)cc(OC)c4Cl)ncn3)cc2)CC1` [Infigratinib], for which the drug sensitivity score in test [1] and in test [2] was 0 in each case.
In the case of `Clc1ccc(C(c2ccccc2Cl)C(Cl)Cl)cc1` (configuration not stated) [Mitotane], the drug sensitivity score in test [1] is 0.6; in test [2], 0.
As for `C[C@@H](C(=O)O)c1ccc(-c2ccccc2)c(F)c1` [Tarenflurbil], the drug sensitivity score in test [1] and in test [2] was 0 throughout.
With `C[C@]1(O)C[C@@H](c2nc(-c3ccc4ccc(-c5ccccc5)nc4c3)c3c(N)nccn32)C1` [Linsitinib], the drug sensitivity score in test [1] amounted to 3.6; in test [2] it was 1.
As to `O=C(O)CC1CC(c2ccccc2)=NO1` (configuration not stated) [VGX-1027], the drug sensitivity score in test [1] and in test [2] was 0 in each case.
As for `CN(C)C/C=C/C(=O)Nc1cc2c(Nc3ccc(F)c(Cl)c3)ncnc2cc1O[C@H]1CCOC1` [Afatinib], the figures for the drug sensitivity score in test [1] and in test [2] were 6.2 and 10.1, respectively.
For `O=C(c1cc(Cc2n[nH]c(=O)c3ccccc23)ccc1F)N1CCN(C(=O)C2CC2)CC1` [Olaparib], in that order: 1.7 and 0.5.
For the compound `O[C@H]1CC[C@H](Nc2ncc3nc(Nc4c(F)cc(F)cc4F)n([C@H]4CCOC4)c3n2)CC1` [Tanzisertib], the drug sensitivity score in test [1] and in test [2] was 0 each time.
In the case of `CN(CC(=O)N(Cc1ccc(C2CCCCC2)cc1)c1ccc(C(=O)O)cc1)S(=O)(=O)c1c(F)c(F)c(F)c(F)c1F` [SH-4-54], the drug sensitivity score in test [1] turned out to be 5.4; in test [2], 7.4.
Turning to `CNC(=O)c1cc(COc2nnc(Nc3ccc(Cl)cc3)c3ccoc23)ccn1` [Telatinib], the drug sensitivity score was found to be 1.2 in test [1] and 0 in test [2].
In the same order, the values of `O=C(Nc1ccc2[nH]nc(-c3ccncc3)c2c1)[C@@H]1CCN(CC(=O)N2CCN(c3ccc(-c4ncccn4)cc3)CC2)C1` are 3.4 and 0.
For `CNc1ncc2cc(-c3cc(NC(=O)NCCC(C)(C)C)c(F)cc3C)c(C)nc2n1`, in that order: 6.3 and 3.8.
Turning to `COc1cc(C)c(/C=C/C(C)=C/C=C/C(C)=C/C(=O)O)c(C)c1C` [Acitretin], the values for the drug sensitivity score in test [1] and in test [2] were 0.2 and 0, respectively.
As for `CNC(=O)c1nn(C)c2c1C(C)(C)Cc1cnc(Nc3ccc(N4CCN(C)CC4)cc3)nc1-2` [Milciclib], the drug sensitivity score in test [1] was determined as 8.3; in test [2], 7.5.
For `Cn1cc(-c2ccc(F)c(C(F)(F)F)c2)nc1C1CCN(c2ncnc3[nH]ncc23)CC1`, in that order: 1.8 and 3.9.
On to `CCOC(=O)CCNc1cc(N2CCc3ccccc3CC2)nc(-c2ccccn2)n1` [GSK-J4], for which the drug sensitivity score was found to be 13.2 in test [1] and 14 in test [2].
For `CC(=O)O[C@@]12CO[C@@H]1C[C@H](O)[C@@]1(C)C(=O)[C@H](O)C3=C(C)[C@@H](OC(=O)[C@H](O)[C@@H](NC(=O)OC(C)(C)C)c4ccccc4)C[C@@](O)([C@@H](OC(=O)c4ccccc4)[C@H]21)C3(C)C` [Docetaxel], in that order: 18.3 and 14.1.
For `CN1CCC(COc2cnc(-c3cccc(Cn4nc(-c5cccc(C#N)c5)ccc4=O)c3)nc2)CC1` [Tepotinib], in that order: 0 and 0.
On to `O=C(NC[C@H](O)CN1CCc2ccccc2C1)c1cc(NC2COC2)ncn1`, for which the drug sensitivity score is 3.9 in test [1] and 4.3 in test [2].
`CC/C(=C(\c1ccc(O)cc1)c1ccc(OCCN(C)C)cc1)c1ccccc1` [4-hydroxytamoxifen]: the drug sensitivity score in test [1] was determined as 4.8; in test [2] it was 4.5.
In the same order, the values of `CC(=O)O[C@H]1C(=O)[C@@]2(C)[C@H]([C@H](OC(=O)c3ccccc3)[C@]3(O)C[C@H](OC(=O)[C@H](O)[C@@H](NC(=O)c4ccccc4)c4ccccc4)C(C)=C1C3(C)C)[C@]1(OC(C)=O)CO[C@@H]1C[C@@H]2O` [Paclitaxel] are 18.3 and 15.2.
For the compound `COc1cc2c(NC3CCN(C(C)C)CC3)nc(C3CCCCC3)nc2cc1OCCCN1CCCC1` [UNC0638], the drug sensitivity score in test [1] came to 0; in test [2], 4.9.
In the case of `Nc1nc(N)c2nc(-c3cccc(O)c3)c(-c3cccc(O)c3)nc2n1` [TG100-115], the figures for the drug sensitivity score in test [1] and in test [2] were 5.1 and 5.9, respectively.
In the same order, the values of `CCNc1nc(Nc2cc(F)c(C(=O)N3CCOCC3)cc2OC)ncc1C(F)(F)F` [GNE-7915] are 0 and 0.
Take `COC(=O)c1ccc2c(c1)[nH]c1ncnc(NCCCN3CCCCC3)c12` [UM729]: the drug sensitivity score in test [1] was 2; in test [2] it was 1.3.
For the compound `COc1cc2ncnc(Nc3cccc(Cl)c3F)c2cc1OC(=O)N1CCN(C)C[C@H]1C` [AZD3759], the figures for the drug sensitivity score in test [1] and in test [2] were 0 and 0.9, respectively.
Regarding `C[C@H]1O[C@@H](O[C@H]2[C@@H](O)C[C@H](O[C@H]3[C@@H](O)C[C@H](O[C@H]4CC[C@@]5(C)[C@H](CC[C@@H]6[C@@H]5C[C@@H](O)[C@]5(C)[C@@H](C7=CC(=O)OC7)CC[C@]65O)C4)O[C@@H]3C)O[C@@H]2C)C[C@H](O)[C@@H]1O` [Digoxin], the drug sensitivity score in test [1] is 8.2; in test [2], 10.6.
For `O=C(/C=C\n1cnc(-c2cc(C(F)(F)F)cc(C(F)(F)F)c2)n1)NNc1cnccn1` [Selinexor], in that order: 9.6 and 9.5.
